Measured values published in patent publication US20250319069A1, “METHODS FOR TREATING DEPRESSIVE STATES” (BioXcel Therapeutics, Inc., priority 2021, published 2025).

Key:
[1] = system: Yohimbine challenged rats; assay: Elevated plus maze test in Yohimbine challenged rats (Example 2); format: in vivo, male Wistar rats; settings: for In the open arms: Percentage change compared to Yohimbine administered group, Number of entries / In the open arms: Percentage change compared to Yohimbine administered group, Time spent: YOH 2.5 mg/kg; for Number of entries in the open arms (Mean ± SEM) / Time spent in the open arms (Mean ± SEM): rats given YOH 2.5 mg/kg i.p., N=12
Experimental: Treatment with Test Compounds: • As outlined in the table • Vehicle is Saline
After compound administration, the rat was placed on the platform opposite a closed arm. The number of entries and the time spent in each arm were recorded during a 5 min period (deliverables). The animal was considered as entered in arm when it placed its four paws into the arm.
The number of rats processed per day was about 20 in this model. Therefore, the experiment was split in several series.
Analysis of variance (ANOVA) was performed on the result data. Fisher's PLSD was used for
pairwise comparisons and p value <0.05 was considered significant.

rats = assay: Elevated plus-maze test in the rat (Example 1); settings: for significance of effect on number of entries, % of entries and time spent in the open arms as compared with vehicle control: Dexmedetomidine 10 μg/kg i.p. (increase), Fluoxetine 32 mg/kg i.p. (decrease), vs Group 1; for anxiolytic-like / anxiogenic-like activity in the Elevated Plus Maze Test (conclusion in words): rat, Dexmedetomidine 10 μg/kg i.p., alone or co-administered
Experimental: The test, reference, comparison or vehicle formulations were administered as a single intraperitoneal dose (i.p.).
Under standard artificial lighting (˜200 Lux), there was a contrast between the closed (obscure and safe) arms and the open (brightly illuminated and anxiogenic) arms of the maze.
The day preceding the experiment, rats were randomized based on their body weight.
The maze consisted of 4 arms of equal length and width (50×10 cm) arranged in the form of a plus sign (+). Two opposite arms were enclosed by 40 cm high walls (closed arms). The 2 other arms had no walls (open arms). The maze was raised approximately 65 cm above the floor. A rat was placed in the centre of the plus-maze and left to explore for 5 minutes.
The test was video-recorded and the number of entries into the open and closed arms and the time spent on the open arms were measured automatically using a video tracking system (EthoVision, Noldus). The % of open arm entries (open arm entries/total arm entries×100) were calculated. The total distance travelled was also reported.
10 rats were studied per group. The test was performed blind over 2 days with half of animals in each group each day.
Fluoxetine (32 mg/kg i.p.) administered 30 minutes before the test was used as comparison substance.
Clobazam (16 mg/kg i.p.), administered 30 minutes before the test was used as reference substance.
All animals received 2 consecutive administrations at 30 minutes before the test.
Data (for each parameter measured) with the test substance was analysed by comparing treated groups with vehicle controls using one-way ANOVA followed by post-hoc Dunnett's tests.
Data with the comparison reference substance (clobazam) was separately analysed by comparing each treated group with vehicle controls using unpaired Student's T-tests.

[2] = Dexmedetomidine 10 μg/kg i.p., Fluvoxamine 3 mg/kg i.p., alone or combined (Group 7), diazepam 1 mg/kg i.p.
[3] = DEX 10 μg/kg or diazepam 1 mg/kg i.p.
[4] = DEX 10 μg/kg i.p., DIAZEPAM 1 mg/kg i.p., or YOH + vehicle, 5 min test
[5] = DEX 10 μg/kg or diazepam 1 mg/kg i.p., listed as DEX
[6] = FLUVO 3 mg/kg, alone or with DEX 10 μg/kg
[7] = FLUVO 10 mg/kg, alone or with DEX 10 μg/kg
[8] = FLUVO 3 mg/kg i.p., alone or with DEX 10 μg/kg i.p.
[9] = FLUVO 10 mg/kg i.p., alone or with DEX 10 μg/kg i.p.
[10] = Yohimbine 2.5 mg/kg i.p. + vehicle (Group 2) vs Group 1, p<0.0001

## CN1C(=O)CN=C(c2ccccc2)c2cc(Cl)ccc21 [DIAZEPAM, Diazepam]
[1]; [2]
  anxiolytic-like effect in Yohimbine administered rats (conclusion in words): reversed Yohimbine-induced anxiety
[1]; [3]
  In the open arms: Percentage change compared to Yohimbine administered group, Number of entries: +262%
  In the open arms: Percentage change compared to Yohimbine administered group, Time spent: +620%
[1]; [4]
  Number of entries in the open arms (Mean ± SEM): 6.33 ± 0.28
  Time spent in the open arms (Mean ± SEM): 74.98 ± 4.31

## Cc1cccc([C@H](C)c2cnc[nH]2)c1C [Dexmedetomidine, (+) 4-(S)-[1-(2,3-dimethylphenyl)ethyl]-1H-imidazole]
[1]; [2]
  anxiolytic-like effect in Yohimbine administered rats (conclusion in words): not statistically significant
[1]; [3]
  In the open arms: Percentage change compared to Yohimbine administered group, Number of entries: +48%
  In the open arms: Percentage change compared to Yohimbine administered group, Time spent: +146%
[1]; [5]
  In the open arms: Percentage change compared to Yohimbine administered group, Number of entries: +48%
  In the open arms: Percentage change compared to Yohimbine administered group, Time spent: +146%
[1]; [4]
  Number of entries in the open arms (Mean ± SEM): 2.58 ± 0.26
  Time spent in the open arms (Mean ± SEM): 25.66 ± 3.84
rats
  significance of effect on number of entries, % of entries and time spent in the open arms as compared with vehicle control: not significant
rats; Fluoxetine 32 mg/kg i.p.
  anxiolytic-like / anxiogenic-like activity in the Elevated Plus Maze Test (conclusion in words): absence of anxiolytic-like activity

## CNCCC(Oc1ccc(C(F)(F)F)cc1)c1ccccc1 (stereo not drawn) [Fluoxetine, N-methyl-3-(p-trifluoromethylphenoxy)-3-phenylpropylamine]
rats
  significance of effect on number of entries, % of entries and time spent in the open arms as compared with vehicle control: not significant
rats; Fluoxetine 32 mg/kg i.p. alone or with Dexmedetomidine 10 μg/kg, vs vehicle control (Group 1)
  change in total distance travelled in the four arms as compared with vehicle control: −65%
rats; Fluoxetine 32 mg/kg i.p., vs vehicle control (Group 1)
  change in total number of entries in the four arms as compared with vehicle control: −57%
rats; Fluoxetine 32 mg/kg i.p.
  anxiolytic-like / anxiogenic-like activity in the Elevated Plus Maze Test (conclusion in words): tended to show anxiogenic like effect

## COCCCCC(=NOCCN)c1ccc(C(F)(F)F)cc1 [Fluvoxamine, 5-methoxy-1-[4-(trifluoromethyl)phenyl]-1-pentanone O-(2-aminoethyl) oxime]
[1]; [2]
  anxiolytic-like effect in Yohimbine administered rats (conclusion in words): not statistically significant
[1]; Fluvoxamine 3 mg/kg i.p. (Group 5)
  significance of improvement in number of entries in the open arms compared with Yohimbine-administered vehicle group: no significant improvement
[1]; Fluvoxamine 10 mg/kg i.p. (Group 6)
  significance of improvement in number of entries in the open arms compared with Yohimbine-administered vehicle group: no significant improvement
[1]; Fluvoxamine 10 mg/kg i.p., in terms of the time spent in the open arms
  anxiolytic-like effect in Yohimbine administered rats (conclusion in words): significant anxiolytic-like effect
[1]; [6]
  In the open arms: Percentage change compared to Yohimbine administered group, Number of entries: +52%
  In the open arms: Percentage change compared to Yohimbine administered group, Time spent: +105%
[1]; FLUVO 3 mg/kg, alone or with DEX 10 μg/kg, listed as FLUVO
  In the open arms: Percentage change compared to Yohimbine administered group, Time spent: +105%
[1]; [7]
  In the open arms: Percentage change compared to Yohimbine administered group, Number of entries: +76%
  In the open arms: Percentage change compared to Yohimbine administered group, Time spent: +232%
[1]; FLUVO 10 mg/kg, alone or with DEX 10 μg/kg, listed as FLUVO
  In the open arms: Percentage change compared to Yohimbine administered group, Time spent: +232%
[1]; [8]
  Number of entries in the open arms (Mean ± SEM): 2.67 ± 0.22
  Time spent in the open arms (Mean ± SEM): 21.39 ± 2.67
[1]; [9]
  Number of entries in the open arms (Mean ± SEM): 3.08 ± 0.42
  Time spent in the open arms (Mean ± SEM): 34.60 ± 5.24

## COC(=O)[C@@H]1[C@H]2C[C@H]3c4[nH]c5ccccc5c4CCN3C[C@@H]2CC[C@@H]1O [YOH, Yohimbine]
[1]; [10]
  change in number of entries to the open arms as compared to vehicle (saline) treated group: −63%
  change in time spent in the open arms as compared to vehicle (saline) treated group: −81%
[1]; [4]
  Number of entries in the open arms (Mean ± SEM): 1.75 ± 0.25
  Time spent in the open arms (Mean ± SEM): 10.42 ± 1.28
